# Measurements published in patent publication US10647680B2, “Urea compound, preparation method therefor and medical use thereof” (Ancureall Pharmaceutical (Shanghai) Co., Ltd., priority 2016, dated 2020).
# “And” between values parts separate entries of the source, which are not always exact repeats. Equal entries are not always repeated. Structures can show the parent of a compound that is named as a salt. Where two headings read alike, the source gives them in different places.
# Key:
# [1] = In vivo pharmacokinetics in rats; design: species or system rat
# Method: The pharmacokinetic experiments in rats were performed using compound 77 of the present invention as a representative example.
# Procedure: 6 SD male rats (˜200 g, purchased from Shanghai Sippr-BK Experimental Animal Co., Ltd) were selected and divided into two groups according to the experimental design table (Table 9). Animals were administered intravenously and orally. Dosing was performed once on the treating day and the doses were 5 mg/kg and 10 mg/kg, respectively.
# Drug formulation method: the required amount of test sample was added to a certain volume of 40% (HP-β-CD) aqueous solution, and then stirred under heating (temperature 25-45° C.) until dissolution, then the same volume of deionized water was added and adjusted to pH 5 with NaOH, to prepare 20% HP-β-CD clear aqueous solution.
# For the intravenous administration group, blood samples were taken from jugular veins before administration and 2 min, 5 min, 15 min, 30 min, 1 h, 2 h, 4 h, 6 h, 8 h, and 24 h after administration; for the oral administration group, blood samples were taken from jugular veins before administration and 5 min, 30 min, 1 h, 2 h, 4 h, 6 h, 8 h, 10 h, and 24 h. The collected blood samples were centrifuged to separate plasma within 30 min (centrifugation condition: 8000 rpm, 6 minutes, 2-8° C.). The plasma samples were stored at −80° C. in a freezer before assay. The plasma samples were used for LC-MS/MS method development and sample testing.
# The pharmacokinetic parameters (AUC(0-t), AUC(0-∞), T1/2, MRT(0-∞), Cmax, Tmax and F) were calculated using WinNonlin Professional v5.2 (Pharsight USA). In addition, the bioavailability (F) was calculated by the following formula.
# CYP3A4-T = target: T1, CYP3A4-T (Homo sapiens, UniProt P08684); test: P450 enzyme inhibition, CYP3A4-T (Testosterone); format: in vitro ADME; conditions: human liver microsomes
# T1 construct: human liver microsomes (BD Gentest) (0.5 mg/mL); tissue BD Gentest; host or cells: human liver microsomes
# T1 sequence (P08684 whole entry): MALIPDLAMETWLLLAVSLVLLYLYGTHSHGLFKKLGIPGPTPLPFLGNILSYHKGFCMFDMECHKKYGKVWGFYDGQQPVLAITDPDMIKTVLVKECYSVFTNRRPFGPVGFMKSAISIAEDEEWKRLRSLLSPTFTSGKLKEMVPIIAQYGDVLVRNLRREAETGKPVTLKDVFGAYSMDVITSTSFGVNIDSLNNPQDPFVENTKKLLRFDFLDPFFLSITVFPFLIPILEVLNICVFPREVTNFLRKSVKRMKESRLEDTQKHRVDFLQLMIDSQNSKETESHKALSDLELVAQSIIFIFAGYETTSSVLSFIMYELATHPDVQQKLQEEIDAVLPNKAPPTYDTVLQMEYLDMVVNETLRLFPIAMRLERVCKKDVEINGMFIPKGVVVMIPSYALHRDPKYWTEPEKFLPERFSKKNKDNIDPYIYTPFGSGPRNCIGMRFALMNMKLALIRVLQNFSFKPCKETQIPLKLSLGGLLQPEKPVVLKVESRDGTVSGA
# Method: Eight cytochrome p450 enzyme inhibition reactions of human liver microsomes were performed using compound 77 of the present invention as a representative example.
# The main reaction systems and processes: in 37° C. water bath, the test compounds (7 concentrations, 0, 0.25, 0.5, 5, 10, 25, and 50 uM; the final methanol concentration was 1% in the system), human liver microsomes (BD Gentest) (0.5 mg/mL) and reducing coenzyme II (Roche 10621706001) (1 mg/mL) and the corresponding cytochrome p450 enzyme probe substrate were co-incubated for 5 to 20 minutes. Among them, (1) the probe substrate for CYP1A2 was Phenacetin ([…]) (Sigma), and the selective inhibitor alpha-naphthoflavone (2 uM) (Sigma) was for parallel detection as positive control, and they were incubated for 20 minutes. (2) The probe substrate for CYP2b6 was Bupropion (40 uM) (Sigma) and the selective inhibitor Ticlopidine (10 uM) (Sigma) was for parallel detection as positive control, and they were incubated for 20 minutes. (3) The probe substrate of CYP2C8 was Amodiaquine (1 uM) (Sigma), and the selective inhibitor Montelukast (10 uM) (Sigma) was for parallel detection as positive control, and they were incubated for 20 minutes. (4) The probe substrate for CYP2C9 was Diclofenac (2.5 uM) (Sigma), and the selective inhibitor Sulphaphenazole (10 uM) (Sigma) was for parallel detection as positive control, and they were incubated for 20 minutes. (5) The probe substrate for CYP2C19 was Mephenytoin (40 uM) (Sigma), and the selective inhibitor Ticlopidine (10 uM) (Sigma) was for parallel detection as positive control, and they were incubated for 20 minutes. (6) The probe substrate for CYP2D6 was Dextromethorphan (5 uM) (Sigma), and the selective inhibitor Quinidine (10 uM) (Sigma) was for parallel detection as positive control, and they were incubated for 20 minutes. (7) The probe substrates for CYP3A4-T and CYP3A4-M were Testosterone (5 uM) (Sigma) and Midazolam (5 uM) (Sigma), respectively, and the selective inhibitor was Ketoconazole (1 uM) (Sigma), they were detected in parallel as positive control, and incubated for 5 minutes. The reaction system was quenched by adding methanol containing the corresponding internal standard. The internal standard compound was Tolbutamide (Sigma). The concentration of the corresponding metabolites was determined by LC/MS/MS. For the data analysis, the decrease in peak area of the metabolite of the sample after addition of compound 77 relative to the peak area of the metabolite of the solvent control sample was used to calculate the IC50 (concentration of the test substance at 50% inhibition). The percentages of peak areas of metabolites of CYP1A2, CYP2B6, CYP2C8, CYP2C9, 15CYP2C19, CYP2D6, CYP3A4-T, and CYP3A4-M probe substrates after addition of different concentrations of compound 77 and selective inhibitors relative to the solvent control peak areas were shown in the Table 7.
# [2] = SD rats, intravenously, 5 mg/kg, individual animals 101-103, listed as methanesulfonate of compound 77, 5 mg/kg
# [3] = SD rats, orally, 10 mg/kg, individual animals 201-203, listed as methanesulfonate of compound 77, 10 mg/kg
# [4] = male, SD, rat, plasma, iv, 5 mg/kg, intravenously, Mean
# [5] = male, SD, rat, plasma, iv, 5 mg/kg, intravenously, individual animals 101-103
# [6] = male, SD, rat, plasma, po, 10 mg/kg, orally, Mean
# [7] = male, SD, rat, plasma, po, 10 mg/kg, orally, individual animals 201-203
compound,measurement,setting,value
"COCCOc1ccc2c(c1)ncn2-c1ccc(NC(=O)Nc2cc(C(C)(C)C)n[nH]2)cc1 [Compound 77 Mesylate, 1-(5-tert-butyl-2H-pyrazol-3-yl)-3-{4-[5-(2-methoxyl-ethoxyl)-benzimidazol-1-yl]-phenyl}-urea]",AUC(0-t),[1]; [2],14458 ng·h/mL and 13825 ng·h/mL
same,AUC(0-∞),[1]; [2],14501 ng·h/mL and 13969 ng·h/mL
same,CL,[1]; [2],345 mL/h/kg and 358 mL/h/kg
same,Cmax,[1]; [2],20795 ng/mL and 17312 ng/mL
same,MRT(0-t),[1]; [2],3.86 h and 4.21 h
same,Vss,[1]; [2],1355 mL/kg and 1599 mL/kg
same,Vz,[1]; [2],1473 mL/kg and 2010 mL/kg
same,t½,[1]; [2],2.96 h and 3.89 h
same,AUC(0-t),[1]; [3],7249 ng·h/mL and 6927 ng·h/mL
same,AUC(0-∞),[1]; [3],7294 ng·h/mL and 7067 ng·h/mL
same,Cmax,[1]; [3],1082 ng/mL and 1095 ng/mL
same,MRT(0-t),[1]; [3],5.07 h and 5.45 h
same,t½,[1]; [3],3.36 h and 4.53 h
same,AUC(0-t),"[1]; male, SD, rat, plasma, iv, 5 mg/kg, administered intravenously, 5 mg/kg, read-out: AUC(0-t)",14400 ng·h/mL
same,Cmax,"[1]; male, SD, rat, plasma, iv, 5 mg/kg, administered intravenously, 5 mg/kg, read-out: Cmax",18700 ng/mL
same,AUC(0-t),"[1]; male, SD, rat, plasma, iv, 5 mg/kg, intravenously, 5 mg/kg, Mean, read-out: AUC(0-t)",14400 ng·h/mL
same,Cmax,"[1]; male, SD, rat, plasma, iv, 5 mg/kg, intravenously, 5 mg/kg, Mean, read-out: Cmax",18700 ng/mL
same,MRT inf,"[1]; male, SD, rat, plasma, iv, 5 mg/kg, intravenously, 5 mg/kg, Mean, read-out: MRT (0-∞)",4.27 h
same,MRT last,"[1]; male, SD, rat, plasma, iv, 5 mg/kg, intravenously, 5 mg/kg, Mean, read-out: MRT(0-t)",4.03 h
same,Vd,"[1]; male, SD, rat, plasma, iv, 5 mg/kg, intravenously, 5 mg/kg, Mean, read-out: Vss",1.47 L/kg
same,Vd,"[1]; male, SD, rat, plasma, iv, 5 mg/kg, intravenously, 5 mg/kg, Mean, read-out: Vz",1.8 L/kg
same,half-life,"[1]; male, SD, rat, plasma, iv, 5 mg/kg, intravenously, 5 mg/kg, Mean, read-out: t½ (converted)",217 min
same,AUC(0-t),"[1]; male, SD, rat, plasma, iv, 5 mg/kg, intravenously, 5 mg/kg, individual animals 101-103, read-out: AUC(0-t)",14900 ng·h/mL
same,Cmax,"[1]; male, SD, rat, plasma, iv, 5 mg/kg, intravenously, 5 mg/kg, individual animals 101-103, read-out: Cmax",18000 ng/mL
same,MRT inf,"[1]; male, SD, rat, plasma, iv, 5 mg/kg, intravenously, 5 mg/kg, individual animals 101-103, read-out: MRT (0-∞)",4.42 h
same,MRT last,"[1]; male, SD, rat, plasma, iv, 5 mg/kg, intravenously, 5 mg/kg, individual animals 101-103, read-out: MRT(0-t)",4.04 h
same,Vd,"[1]; male, SD, rat, plasma, iv, 5 mg/kg, intravenously, 5 mg/kg, individual animals 101-103, read-out: Vss",1.46 L/kg
same,Vd,"[1]; male, SD, rat, plasma, iv, 5 mg/kg, intravenously, 5 mg/kg, individual animals 101-103, read-out: Vz",1.91 L/kg
same,half-life,"[1]; male, SD, rat, plasma, iv, 5 mg/kg, intravenously, 5 mg/kg, individual animals 101-103, read-out: t½ (converted)",241 min
same,AUC(0-inf),[1]; [4],14500 ng·h/mL
same,clearance,[1]; [4],5.73 mL/min/kg
same,AUC(0-inf),[1]; [5],15200 ng·h/mL
same,clearance,[1]; [5],5.5 mL/min/kg
same,AUC(0-t),"[1]; male, SD, rat, plasma, po, 10 mg/kg, administered orally, 10 mg/kg, read-out: AUC(0-t)",6770 ng·h/mL
same,Cmax,"[1]; male, SD, rat, plasma, po, 10 mg/kg, administered orally, 10 mg/kg, read-out: Cmax",1050 ng/mL
same,AUC(0-t),"[1]; male, SD, rat, plasma, po, 10 mg/kg, orally, 10 mg/kg, Mean, read-out: AUC(0-t)",6770 ng·h/mL
same,Cmax,"[1]; male, SD, rat, plasma, po, 10 mg/kg, orally, 10 mg/kg, Mean, read-out: Cmax",1050 ng/mL
same,MRT last,"[1]; male, SD, rat, plasma, po, 10 mg/kg, orally, 10 mg/kg, Mean, read-out: MRT(0-t)",5.38 h
same,half-life,"[1]; male, SD, rat, plasma, po, 10 mg/kg, orally, 10 mg/kg, Mean, read-out: t½ (converted)",232 min
same,AUC(0-t),"[1]; male, SD, rat, plasma, po, 10 mg/kg, orally, 10 mg/kg, individual animals 201-203, read-out: AUC(0-t)",6140 ng·h/mL
same,Cmax,"[1]; male, SD, rat, plasma, po, 10 mg/kg, orally, 10 mg/kg, individual animals 201-203, read-out: Cmax",977 ng/mL
same,MRT last,"[1]; male, SD, rat, plasma, po, 10 mg/kg, orally, 10 mg/kg, individual animals 201-203, read-out: MRT(0-t)",5.61 h
same,half-life,"[1]; male, SD, rat, plasma, po, 10 mg/kg, orally, 10 mg/kg, individual animals 201-203, read-out: t½ (converted)",222 min
same,AUC(0-inf),[1]; [6],6860 ng·h/mL
same,MRT,[1]; [6],5.68 h
same,AUC(0-inf),[1]; [7],6210 ng·h/mL
same,MRT,[1]; [7],5.9 h
same,Tmax,"[1]; male, rat, plasma, po, SD rats, orally, 10 mg/kg, Mean",2 h
same,bioavailability,"[1]; male, rat, plasma, SD rats, oral 10 mg/kg versus intravenous 5 mg/kg",23.5%
"COCCOc1ccc2c(c1)ncn2-c1ccc(NC(=O)Nc2cc(C(C)(C)C)n[nH]2)cc1 [Compound 77, 1-(5-tert-butyl-2H-pyrazol-3-yl)-3-{4-[5-(2-methoxyl-ethoxyl)-benzimidazol-1-yl]-phenyl}-urea]",CYP3A4T Remaining %,CYP3A4-T; Concentration 0.25 uM,108.5%
same,CYP3A4T Remaining %,CYP3A4-T; Concentration 0.5 uM,108.2%
same,CYP3A4T Remaining %,CYP3A4-T; Concentration 5 uM,104.7%
same,CYP3A4T Remaining %,CYP3A4-T; Concentration 10 uM,112.5%
same,CYP3A4T Remaining %,CYP3A4-T; Concentration 25 uM,109.9%
same,CYP3A4T Remaining %,CYP3A4-T; Concentration 50 uM,101.2%
same,inhibitory effect on CYP3A4-T,CYP3A4-T; Concentration 50 uM,no significant inhibitory effect
